Measurements: patent publication US20130345420A9, “SELECTIVE INHIBITORS OF EXCITATORY AMINO ACID TRANSPORTER SUBTYPE 1 (EAAT1/GLAST)” (priority 2008, published 2013)
pIC50: −log10 of the molar value. Where two headings read alike, the source gives them in different places. One block for each molecule: values may come before it.

How the values were obtained:
human EAAT1 = target: T1, human EAAT1 (Homo sapiens, UniProt P43003); test: [3H]-D-Aspartic acid uptake assay, HEK293 cells stably expressing EAAT1; assay type: cell-based; settings: for Inhibition of [3H]-D-Asp uptake, EAAT1, pIC50±S.E.M. / IC50: value in brackets; for IC50: read-out: Inhibition of [3H]-D-Asp uptake, EAAT1, pIC50±S.E.M. (converted)
T1 construct: expressed in transfected cells
Experimental: (§1) Table 1: Inhibition of [^3H]-D-Asp uptake in HEK293 cells stably expressing human EAAT1, EAAT2 and EAAT3. The IC50 values are given in μM with pIC50±S.E.M. values in brackets (n=3-7).
(§2) The functional properties of the novel compounds of the invention were assessed in a [^3H]-D-Aspartic acid uptake assay using HEK293 cell lines stably expressing the human EAAT subtypes EAAT1, EAAT2 and EAAT3. Furthermore, some of the compounds were assayed at human EAAT1, EAAT2 and EAAT3 and the rat orthologs GLAST, GLT-1 and EAAC-1 in the FLIPR® Membrane Potential (FMP) Blue assay (Molecular Devices, Crawley, UK).
(§3) FIG. I depicts a graph showing the concentration-inhibition curves for 1o at the human EAAT subtype EAAT1 stably expressed in HEK293 cell lines in a [^3H]-D-aspartic acid uptake assay. The cells (grown in wells of 96-well plates) were washed twice with assay buffer, and incubated with buffer supplemented with 30 nM [^3H]-D-aspartic acid in the absence (control) or presence of increasing concentrations of 1o at […] for 7 min. The assay mixtures were then quickly removed from the wells, and the cells were washed with 3 times with ice-cold buffer, scintillation fluid was added to each well, and the plate was counted in a TopCounter.

Solubility in solvents = assay type: physicochemical; settings: aq buffer solutions (pH=7.4), DMSO and CDCl3
human EAAT3 = target: T2, human EAAT3 (Homo sapiens, UniProt P43005); test: [3H]-D-Aspartic acid uptake assay, HEK293 cells stably expressing EAAT3; assay type: cell-based; settings: n=3-7, read-out: Inhibition of [3H]-D-Asp uptake, EAAT3, IC50
T2 construct: expressed in transfected cells
T2 sequence (P43005 1-524): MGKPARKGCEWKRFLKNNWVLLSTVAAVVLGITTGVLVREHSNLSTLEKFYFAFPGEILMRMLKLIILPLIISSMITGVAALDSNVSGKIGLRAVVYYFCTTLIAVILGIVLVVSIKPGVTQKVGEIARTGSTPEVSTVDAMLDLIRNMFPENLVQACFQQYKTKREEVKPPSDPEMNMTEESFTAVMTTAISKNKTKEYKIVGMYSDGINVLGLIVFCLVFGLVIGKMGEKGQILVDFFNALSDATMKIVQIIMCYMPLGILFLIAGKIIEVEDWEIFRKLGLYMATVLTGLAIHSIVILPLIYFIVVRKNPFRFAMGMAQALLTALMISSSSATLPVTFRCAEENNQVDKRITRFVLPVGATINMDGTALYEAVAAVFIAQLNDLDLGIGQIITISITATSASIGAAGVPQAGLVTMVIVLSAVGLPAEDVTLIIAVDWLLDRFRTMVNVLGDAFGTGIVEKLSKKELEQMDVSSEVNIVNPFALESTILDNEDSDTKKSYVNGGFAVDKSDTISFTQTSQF
Experimental: as §1, §2, §3

human EAAT2 = target: T3, human EAAT2 (Homo sapiens, UniProt P43004); test: [3H]-D-Aspartic acid uptake assay, HEK293 cells stably expressing EAAT2; assay type: cell-based; settings: n=3-7, read-out: Inhibition of [3H]-D-Asp uptake, EAAT2, IC50
T3 construct: expressed in transfected cells
Experimental: as §1, §2, §3

[1] = HEK293 cells stably expressing human EAAT1, n=3-7, read-out: Inhibition of [3H]-D-Asp uptake, EAAT1, IC50
[2] = HEK293 cells stably expressing human EAAT1, n=3-7

T1 sequence (P43003 whole entry): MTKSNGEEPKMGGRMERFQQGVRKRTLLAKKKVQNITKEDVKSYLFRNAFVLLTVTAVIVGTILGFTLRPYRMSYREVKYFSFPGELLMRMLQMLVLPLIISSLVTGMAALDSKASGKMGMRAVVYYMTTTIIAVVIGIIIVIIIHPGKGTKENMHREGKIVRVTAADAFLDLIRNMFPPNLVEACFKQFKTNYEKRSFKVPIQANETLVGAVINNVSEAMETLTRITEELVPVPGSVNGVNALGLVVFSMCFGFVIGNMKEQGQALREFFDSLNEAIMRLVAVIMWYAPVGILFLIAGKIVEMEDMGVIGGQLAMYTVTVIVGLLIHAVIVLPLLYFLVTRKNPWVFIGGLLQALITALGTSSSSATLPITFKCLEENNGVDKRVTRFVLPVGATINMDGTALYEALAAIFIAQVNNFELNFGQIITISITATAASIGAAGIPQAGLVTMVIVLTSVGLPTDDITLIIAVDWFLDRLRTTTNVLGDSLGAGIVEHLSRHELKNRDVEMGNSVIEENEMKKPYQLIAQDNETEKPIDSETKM
T3 sequence (P43004 whole entry): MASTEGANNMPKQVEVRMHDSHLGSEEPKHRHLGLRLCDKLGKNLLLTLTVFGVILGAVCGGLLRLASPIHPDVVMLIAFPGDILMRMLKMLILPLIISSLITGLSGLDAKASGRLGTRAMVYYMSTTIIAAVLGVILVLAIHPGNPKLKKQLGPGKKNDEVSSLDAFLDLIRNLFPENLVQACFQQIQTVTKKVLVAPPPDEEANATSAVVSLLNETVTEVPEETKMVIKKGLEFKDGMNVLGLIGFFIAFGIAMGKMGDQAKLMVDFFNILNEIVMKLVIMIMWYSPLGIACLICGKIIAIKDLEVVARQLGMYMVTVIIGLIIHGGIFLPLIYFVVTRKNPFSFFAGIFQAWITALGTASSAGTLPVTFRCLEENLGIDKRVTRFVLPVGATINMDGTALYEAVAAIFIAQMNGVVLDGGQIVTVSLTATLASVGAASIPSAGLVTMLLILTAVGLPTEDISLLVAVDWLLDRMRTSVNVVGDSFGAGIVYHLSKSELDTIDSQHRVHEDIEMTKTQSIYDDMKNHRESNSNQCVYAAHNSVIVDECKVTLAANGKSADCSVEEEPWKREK

pIC50 (human EAAT1; [1]): ~4.52
Structure (SMILES): N#CC1=C(N)OC2=C(C(=O)CC(c3ccccc3)C2)C1Cc1ccccc1 (stereo not shown) [1u]

pIC50 (human EAAT1; [1]): 5.64
Inhibition of [3H]-D-Asp uptake, EAAT1, pIC50±S.E.M. (human EAAT1; [2]): 5.64 ± 0.05
Structure (SMILES): COc1ccc(C2C(C#N)=C(N)OC3=C2C(=O)CC(c2ccccc2)C3)cc1 (stereo not shown) [1c, 2-Amino-4-(4-methoxyphenyl)-7-(phenyl)-5-oxo-5,6,7,8-tetrahydro-4H-chromene-3-carbonitrile]

Solubility in comparison with 1o (Solubility in solvents): significantly more soluble
pIC50 (human EAAT1; [1]): 6.24
IC50 (human EAAT1; [2]): 0.562 µM
pIC50 (human EAAT3): < 3.52
pIC50 (human EAAT2): < 3.52
Structure (SMILES): CC1C(C#N)=C(N)OC2=C1C(=O)CC(c1cccc3ccccc13)C2 (stereo not shown) [1w, 2-Amino-4-methyl-7-(naphthalene-1-yl)-5-oxo-5,6,7,8-tetrahydro-4H-chromene-3-carbo-nitrile]

Structure (SMILES): COc1ccc(C2C(C#N)=C(N)OC3=C2C(=O)CC(c2ccco2)C3)cc1OC(=O)N1CCOCC1 (stereo not shown) [1q]
pIC50 (human EAAT1): ~4.00

pIC50 (human EAAT1; [1]): 4.96
Inhibition of [3H]-D-Asp uptake, EAAT1, pIC50±S.E.M. (human EAAT1; [2]): 4.97 ± 0.05
melting point: 159.9 to 161.4 °C
pIC50 (human EAAT3): < 3.52
pIC50 (human EAAT2): < 3.52
Structure (SMILES): COc1ccc(C2C(C#N)=C(N)OC3=C2C(=O)CC(c2ccc(OC)c(OC)c2)C3)cc1 (stereo not shown) [1n, 2-Amino-4-(4-methoxyphenyl)-7-(3,4-dimethoxyphenyl)-5-oxo-5,6,7,8-tetrahydro-4H-chromene-3-carbonitrile]

IC50 (human EAAT1; [2]): ~50.1 µM
Structure (SMILES): COc1cccc(C2C(C#N)=C(N)OC3=C2C(=O)CC(c2ccccc2)C3)c1OC (stereo not shown) [1f]

pIC50 (human EAAT1; [1]): ~4.52
Structure (SMILES): N#CC1=C(N)OC2=C(C(=O)CC(c3ccccc3)C2)C1c1cccnc1 (stereo not shown) [1s]
